In patent US4859779A, “Dopamine-β-hydroxylase inhibitors” (SmithKline Beckman Corporation, priority 1989, dated 1989):
Where a name gives a salt, the structure may show the parent alone.

Key:
DBH = biological target: T1, DBH (Homo sapiens, UniProt P09172); conditions: literature reports; cited from earlier work
T1 sequence (P09172 1-617): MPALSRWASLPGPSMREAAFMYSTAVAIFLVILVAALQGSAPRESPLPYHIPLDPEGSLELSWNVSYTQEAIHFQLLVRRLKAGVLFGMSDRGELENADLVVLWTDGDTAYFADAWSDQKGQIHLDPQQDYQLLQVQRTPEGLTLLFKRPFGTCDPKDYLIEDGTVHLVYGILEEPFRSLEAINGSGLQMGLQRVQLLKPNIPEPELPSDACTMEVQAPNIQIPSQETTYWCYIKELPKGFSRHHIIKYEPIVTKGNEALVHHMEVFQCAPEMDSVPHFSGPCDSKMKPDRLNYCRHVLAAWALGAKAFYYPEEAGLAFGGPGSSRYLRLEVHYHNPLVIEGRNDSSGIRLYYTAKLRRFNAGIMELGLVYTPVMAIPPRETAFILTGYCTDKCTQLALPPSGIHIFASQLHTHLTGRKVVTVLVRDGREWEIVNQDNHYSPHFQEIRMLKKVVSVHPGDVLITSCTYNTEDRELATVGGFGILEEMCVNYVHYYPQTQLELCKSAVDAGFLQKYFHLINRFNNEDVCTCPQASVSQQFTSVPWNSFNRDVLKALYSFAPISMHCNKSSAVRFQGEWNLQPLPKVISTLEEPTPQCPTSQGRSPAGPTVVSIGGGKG

[1] = Ehrreich et al., 1976; cited from earlier work
[2] = tested on: spontaneously hypertensive rats; test: mean arterial blood pressure in spontaneously hypertensive rats (indwelling tail artery cannulae); format: in vivo, rat; conditions: 50 mg/kg intraperitoneally
Method: Further, spontaneously hypertensive rats were treated with a suspension or solution of N-(2-aminoethyl)-1-(3,5-difluorobenzyl)-2-mercaptoimidazole-5-carboxamide,formate at a dose of 50 mg/kg intraperitoneally, and mean arterial blood pressure was monitored for 260 minutes using indwelling cannulae in the tail arteries.

## O=C(O)c1ccc(CCC(Br)CBr)cn1 (stereo not drawn) [5-(3,4-dibromobutyl)picolinic acid]
DBH
  DBH inhibition (in words): DBH inhibitors

## O=C(O)c1ccc(CCCCCl)cn1 [5-(4-chlorobutyl) picolinic acid]
DBH
  DBH inhibition (in words): inhibit DBH

## CN(C)C(=S)SCc1ccc(C(=O)O)nc1 [5-(dimethyldithiocarbamoylmethyl)picolinic acid]
DBH
  DBH inhibition (in words): DBH inhibitors

## NOCc1ccccc1 [Benzyloxyamine]
DBH
  DBH inhibition (in words): apparently act as competitive inhibitors

## CCCCc1ccc(C(N)=O)nc1 [Bupicomide, 5-(n-butyl)picolinamine]
[1]
  antihypertensive activity: antihypertensive activity
DBH
  DBH inhibition (in words): DBH inhibitor

## NCCNC(=O)c1cnc(S)n1Cc1cc(F)cc(F)c1 [N-(2-Aminoethyl)-1-(3,5-difluorobenzyl)-2-mercaptoimidazole-5-carboxamide,formate]
[2]; suspension or solution, mean arterial blood pressure, within 30 minutes following treatment
  blood pressure reduction compared to vehicle-treated controls: significant blood pressure reductions
[2]; versus vehicle-treated controls
  time to significant blood pressure reduction: ≤ 30 min

## NNCc1ccccc1 [benzylhydrazine]
DBH
  DBH inhibition (in words): apparently act as competitive inhibitors
